Results reported in ChEMBL document CHEMBL1156505, “Allosteric transinhibition by specific antagonists in CCR2/CXCR4 heterodimers” (J Biol Chem, 2007).
Active and inactive are the calls of the source. No cut-off for these calls is given here.

Assays:
[1] = target: T1, C-C chemokine receptor type 2 (Homo sapiens, UniProt P41597); assay: Displacement of [125I]SDF1alpha from CCR2/CXCR4 expressed in CHOK1 cells; type: cell-based; details: CHO-K1; concentration not given here
Target sequence in this assay (P41597 whole entry, looked up): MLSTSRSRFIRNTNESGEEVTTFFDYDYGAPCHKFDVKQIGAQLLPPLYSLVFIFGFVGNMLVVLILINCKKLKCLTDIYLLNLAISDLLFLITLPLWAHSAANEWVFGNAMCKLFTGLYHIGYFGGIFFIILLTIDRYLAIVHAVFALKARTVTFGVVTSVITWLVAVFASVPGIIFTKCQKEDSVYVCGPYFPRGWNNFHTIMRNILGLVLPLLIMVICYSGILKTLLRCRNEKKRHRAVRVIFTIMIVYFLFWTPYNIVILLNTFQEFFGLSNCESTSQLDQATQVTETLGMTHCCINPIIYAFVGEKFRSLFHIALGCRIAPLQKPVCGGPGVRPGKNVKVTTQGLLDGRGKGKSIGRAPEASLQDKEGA

[2] = target: T1, C-C chemokine receptor type 2; assay: Displacement of [125I]MCP1 from CCR2/CXCR4 expressed in CHOK1 cells; type: cell-based; details: CHO-K1; concentration not given here
Target sequence in this assay (P41597 whole entry, looked up): as above

[3] = target: T1, C-C chemokine receptor type 2; assay: biochemical
Target sequence in this assay (P41597 whole entry): as the sequence (P41597 whole entry, looked up) above
Description: Displacement of [125I]MCP1 from CCR2 expressed in CHOK1 cells

[4] = organism: Homo sapiens; assay: Inhibition of migration of human CD4+ lymphoblasts towards MCP1 by chemotaxis assay; type: functional

SMILES | inhibition [1] | inhibition [2] | IC50 [3] | Activity [4]
c1cc(CN2CCCNCCNCCCNCC2)ccc1CN1CCCNCCNCCCNCC1 | 87.1% | 36.2% |  | 
Cc1ccc(-c2ccc3c(c2)C=C(C(=O)Nc2ccc(C[N+](C)(C)C4CCOCC4)cc2)CCC3)cc1 | 38.1% | 90.7% | 250 pM | Active
